# Target: Dihydroorotate dehydrogenase (Helicobacter pylori)
# Test: Inhibition of dihydroorotate dehydrogenase (DHODase) of Helicobacter pylori
row,SMILES,Ki
1,"O=C(NCc1cccnc1)c1cc(C(=O)Nc2ccccc2)n(-c2ccc(Cl)cc2)n1 [1-(4-Chloro-phenyl)-1H-pyrazole-3,5-dicarboxylic acid 5-phenylamide 3-[(pyridin-3-ylmethyl)-amide]]",4 nM
2,"CC(C)CNC(=O)c1cc(C(=O)NCc2ccccc2)nn1-c1ccc(Cl)cc1 [1-(4-Chloro-phenyl)-1H-pyrazole-3,5-dicarboxylic acid 3-benzylamide 5-(isobutyl-amide)]",91 nM
3,"Cc1ccc(CNC(=O)c2cc(C(=O)Nc3ccccc3)n(-c3ccc(Cl)cc3)n2)cc1 [1-(4-Chloro-phenyl)-1H-pyrazole-3,5-dicarboxylic acid 3-(4-methyl-benzylamide) 5-phenylamide]",32 nM
4,"O=C(NCc1ccccc1)c1cc(C(=O)Nc2ccccc2)n(-c2ccc(Cl)cc2)n1 [X1-(4-Chloro-phenyl)-1H-pyrazole-3,5-dicarboxylic acid 3-benzylamide 5-phenylamide]",4 nM
5,"COc1ccc(-n2nc(C(=O)NCC3CCCO3)cc2C(=O)Nc2ccc(C(=O)N3CCCC3)cc2)cc1 (stereo unspecified) [1-(4-Methoxy-phenyl)-1H-pyrazole-3,5-dicarboxylic acid 5-{[4-(pyrrolidine-1-carbonyl)-phenyl]-amide} 3-[(tetrahydro-furan-2-ylmethyl)-amide]]",331 nM
6,"O=C(NCc1cccnc1)c1cc(C(=O)Nc2ccc(N3CCCCC3)cc2)n(-c2ccc(Cl)cc2)n1 [1-(4-Chloro-phenyl)-1H-pyrazole-3,5-dicarboxylic acid 5-[(4-piperidin-1-yl-phenyl)-amide] 3-[(pyridin-3-ylmethyl)-amide]]",8 nM
7,"NC(=O)c1ccc(NC(=O)c2cc(C(=O)NCc3ccccc3)nn2-c2ccc(Cl)cc2)cc1 [1-(4-Chloro-phenyl)-1H-pyrazole-3,5-dicarboxylic acid 3-benzylamide 5-[(4-carbamoyl-phenyl)-amide]]",6 nM
8,"COc1ccc(-n2nc(C(=O)NCc3ccccc3)cc2C(=O)Nc2ccc(C(=O)N3CCCC3)cc2)cc1 [1-(4-Methoxy-phenyl)-1H-pyrazole-3,5-dicarboxylic acid 3-benzylamide 5-{[4-(pyrrolidine-1-carbonyl)-phenyl]-amide}]",26 nM
9,"COc1ccc(-n2nc(C(=O)NC(c3ccccc3)c3ccccc3)cc2C(=O)NCc2ccccc2)cc1 [1-(4-Methoxy-phenyl)-1H-pyrazole-3,5-dicarboxylic acid 3-benzhydryl-amide 5-benzylamide]",2400 nM
10,"COc1ccc(-n2nc(C(=O)NCc3cccnc3)cc2C(=O)Nc2ccccc2)cc1 [1-(4-Methoxy-phenyl)-1H-pyrazole-3,5-dicarboxylic acid 5-phenylamide 3-[(pyridin-3-ylmethyl)-amide]]",12 nM
11,"COc1ccc(-n2nc(C(=O)NCC(C)C)cc2C(=O)Nc2ccc(C(=O)N3CCCC3)cc2)cc1 [1-(4-Methoxy-phenyl)-1H-pyrazole-3,5-dicarboxylic acid 3-(isobutyl-amide) 5-{[4-(pyrrolidine-1-carbonyl)-phenyl]-amide}]",138 nM

# — BindingDB's records for doi:10.1021/jm020112w (Bristol-Myers Squibb, 2002)
